In ChEMBL document CHEMBL1146881, “Improved replicon cellular activity of non-nucleoside allosteric inhibitors of HCV NS5B polymerase: from benzimidazole to indole scaffolds” (Bioorg Med Chem Lett, 2006) one finds IC50, EC50 and Activity data, which are given here for 27 molecules.

SMILES strings stand for the structures. The source made the active and inactive calls. The calls are words filed in the database; no cut-off is given here. Bounds are passed on as bounds.

The target of assay [1] is RNA-directed RNA polymerase (Hepacivirus hominis, UniProt O39930). Nature of the assay: Inhibition of HCV 1b NS5B delta21 RNA dependent RNA polymerase by SPA. More on the design: species or system Hepatitis C virus subtype 1b.
Chain of RNA-directed RNA polymerase (O39930 whole entry): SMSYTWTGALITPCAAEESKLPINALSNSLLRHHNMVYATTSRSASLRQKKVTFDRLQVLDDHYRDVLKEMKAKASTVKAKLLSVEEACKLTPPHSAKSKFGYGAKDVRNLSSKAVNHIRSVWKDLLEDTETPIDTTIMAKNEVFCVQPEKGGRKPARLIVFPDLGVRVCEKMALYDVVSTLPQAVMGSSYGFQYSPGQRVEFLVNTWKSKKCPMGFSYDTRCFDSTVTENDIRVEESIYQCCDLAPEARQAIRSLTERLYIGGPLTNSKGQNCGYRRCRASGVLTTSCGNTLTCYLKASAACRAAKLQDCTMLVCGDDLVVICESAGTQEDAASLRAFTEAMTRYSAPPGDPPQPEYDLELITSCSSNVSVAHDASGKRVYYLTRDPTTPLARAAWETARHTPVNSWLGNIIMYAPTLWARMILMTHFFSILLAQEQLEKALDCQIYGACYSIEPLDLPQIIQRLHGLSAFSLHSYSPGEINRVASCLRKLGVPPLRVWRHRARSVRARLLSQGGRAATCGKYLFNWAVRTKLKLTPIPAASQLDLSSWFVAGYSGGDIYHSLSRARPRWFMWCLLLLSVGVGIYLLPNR
The next assay has as its system Hepatitis C virus. Put plainly: Inhibition of HCV RNA replication by replicon assay. The note with it: for Activity: Hepacivirus hominis. Format: functional, organism-based, Hepacivirus hominis.
In another assay the target is Genome polyprotein (Human poliovirus 1 Mahoney, UniProt P03300). Nature of the assay: Inhibition of poliovirus RNA dependent RNA polymerase. Further details: species or system Enterovirus C.
Chain of Genome polyprotein (P03300 1749-2209 limits assumed): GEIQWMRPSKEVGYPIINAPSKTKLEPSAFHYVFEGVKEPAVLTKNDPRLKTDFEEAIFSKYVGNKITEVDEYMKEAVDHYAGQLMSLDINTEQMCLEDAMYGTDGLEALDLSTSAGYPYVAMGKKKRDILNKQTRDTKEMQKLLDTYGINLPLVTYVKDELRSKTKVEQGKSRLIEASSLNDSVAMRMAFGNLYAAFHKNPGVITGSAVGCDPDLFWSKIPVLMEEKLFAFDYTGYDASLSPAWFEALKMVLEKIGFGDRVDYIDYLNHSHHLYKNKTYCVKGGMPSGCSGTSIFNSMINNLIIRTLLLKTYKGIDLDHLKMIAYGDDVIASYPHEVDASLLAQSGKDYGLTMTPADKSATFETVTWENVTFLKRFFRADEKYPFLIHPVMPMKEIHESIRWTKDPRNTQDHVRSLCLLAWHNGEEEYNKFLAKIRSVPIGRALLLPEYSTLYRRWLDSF

In the case of `Cn1c(-c2ccoc2)c(C2CCCCC2)c2ccc(C(=O)O)cc21`, the IC50 was 16 nM in assay [1] and 125000 nM at Genome polyprotein. In the assay with Hepatitis C virus, this molecule came in with a concentration giving a half-maximal response (EC50) of 4200 nM.
The molecule `COC(=O)c1c(C(=O)O)ccc2c(C3CCCC3)c(-c3ccoc3)n(C)c12` came in with an IC50 in assay [1] of 480 nM. Also, the EC50 with Hepatitis C virus was 22000 nM.
For `O=C(O)c1ccc2c(C3CCCC3)c(-c3ccoc3)sc2c1`, the IC50 in assay [1] was found to be 78 nM. This molecule also came in with an EC50 in the assay with Hepatitis C virus of 22000 nM.
For `O=C(O)c1ccc2c(C3CCCC3)c(-c3ccoc3)oc2c1`, in that order: 81 nM and 21000 nM.
For `O=C(O)c1ccc2c(C3CCCC3)c(-c3ccoc3)[nH]c2c1`, in that order: 25 nM and 6600 nM.
`O=C(O)/C=C/c1cc(-c2ccccn2)n(C2CCCCC2)n1` showed an IC50 in assay [1] of more than 100000 nM.
As to `Cc1c(-c2ccccn2)n(C2CCCCC2)c2ccc(C(=O)O)cc12`, inhibition in assay [1] was half-maximal at 820 nM (IC50). The EC50 in the assay with Hepatitis C virus was more than 10000 nM.
In assay [1], `O=C(O)c1ccc2c(c1)nc(-c1ccoc1)n2C1CCCC1` yielded an IC50 of 2200 nM. In addition, in the assay with Hepatitis C virus, the result was inactive.
Take `O=C(O)c1ccc2c(C3CCCCC3)c(-c3ccoc3)[nH]c2c1`: the IC50 in assay [1] is 30 nM; at Genome polyprotein it was more than 125000 nM. This molecule came in with an EC50 in the assay with Hepatitis C virus of 6700 nM.
Take `O=C(O)c1ccc2c(C3CCCCC3)c(-c3ccccn3)[nH]c2c1`: the IC50 in assay [1] was determined as 230 nM. Further, in the assay on Hepatitis C virus, the EC50 was more than 10000 nM.
In turn, `Cn1c(-c2ccoc2)c(C2CCCC2)c2ccc(C(=O)O)c(C(=O)O)c21` yielded an IC50 in assay [1] of 5300 nM. That is a single-digit micromolar value.
In the case of `O=C(O)c1ccc2c(c1)nc(-c1ccccc1)n2C1CCCCC1`, the IC50 in assay [1] is 3100 nM. Besides, the outcome in the assay with Hepatitis C virus was inactive.
As for `Cn1c(-c2ccoc2)c(C2CCCC2)c2ccc(C(=O)O)c(O)c21`, the IC50 in assay [1] is 75 nM. The EC50 with Hepatitis C virus was 19000 nM.
For `Cn1c(-c2ccoc2)c(C2CCCC2)c2ccc(C(=O)O)c(Cl)c21`, in that order: 290 nM and 37000 nM.
As to `Cn1c(-c2ccccc2)c(C2CCCCC2)c2ccc(C(=O)O)nc21`, the IC50 in assay [1] is 80 nM. The molecule also showed an EC50 in the assay with Hepatitis C virus of 2200 nM.
For `COc1c(C(=O)O)ccc2c(C3CCCC3)c(-c3ccoc3)n(C)c12`, the IC50 in assay [1] was 340 nM. For the same molecule, the EC50 in the assay on Hepatitis C virus is 40000 nM.
Molecule `Cn1c(-c2ccoc2)c(C2CCCCC2)c2ccc(C(=O)O)nc21` had an IC50 in assay [1] of 51 nM.
Regarding `Cn1c(-c2ccoc2)c(C2CCCC2)c2ccc(C(=O)O)cc21`, in assay [1], the midpoint of inhibition, the IC50, lay at 21 nM. For the same molecule, the concentration for a half-maximal effect (EC50) in the assay with Hepatitis C virus turned out to be 6600 nM.
`O=C(O)c1ccc2c(c1)S(=O)(=O)C(c1ccoc1)=C2C1CCCC1`: the IC50 in assay [1] was more than 100000 nM.
In assay [1], `O=C(O)c1ccc2c(C3CCCCC3)c(-c3ccccc3)[nH]c2c1` had an IC50 of 50 nM. The molecule further gave an EC50 in the assay on Hepatitis C virus of more than 10000 nM.
For `Cn1c(-c2ccccn2)c(C2CCCCC2)c2ccc(C(=O)O)cc21`, in assay [1], the 50% inhibitory concentration (IC50) is 90 nM. Also, the EC50 in the assay on Hepatitis C virus is 3900 nM.
In assay [1], `O=C(O)c1ccc2c(c1)nc(-c1ccccn1)n2C1CCCCC1` registered a half-maximal inhibitory concentration (IC50) of 2700 nM. Further, the result in the assay with Hepatitis C virus was inactive.
Turning to `O=C(O)/C=C/c1cc(C2CCCCC2)c(-c2ccccn2)[nH]1`, the IC50 in assay [1] was more than 50000 nM.
`Cc1c(-c2ccccc2)n(C2CCCCC2)c2ccc(C(=O)O)cc12`: the IC50 in assay [1] amounted to 180 nM. The EC50 in the assay with Hepatitis C virus was more than 10000 nM.
The corresponding values for `Cc1c(-c2ccoc2)n(C2CCCCC2)c2ccc(C(=O)O)cc12` are 44 nM and more than 10000 nM.
In the case of `O=C(O)c1ccc2c(c1)nc(-c1ccoc1)n2C1CCCCC1`, the IC50 in assay [1] is 1100 nM. In addition, in the assay with Hepatitis C virus, the result was inactive.
With `Cn1c(-c2ccccc2)c(C2CCCCC2)c2ccc(C(=O)O)cc21`, the midpoint of inhibition in assay [1], the IC50, lay at 30 nM. Moreover, the EC50 in the assay with Hepatitis C virus was 6600 nM.
